Test results published in patent US4555518A, “Fluoroalkoxy substituted benzimidazoles useful as gastric acid secretion inhibitors” (Byk Gulden Lomberg Chemische Fabrik GmbH, priority 1983, dated 1985).

Legend:
[1] = tested on: gastric lesion formation (rat stomach); experiment: Shay rat: inhibition of gastric lesion formation induced by pyloric ligature and oral acetylsalicylic acid (protective effect on the stomach); format: in vivo; conditions: perorally, rats, 1 h before pyloric ligature, 4 h, 100 mg/kg acetylsalicylic acid, dose reducing lesion index by 50% vs control
Protocol: (§1) In these experiments, the compounds according to the invention were compared with prior art compounds (A-D) of European Patent Applications Nos. 0 005 129 and 0 074 341. The compounds investigated are numbered as follows: The influence of the compounds of the prior art and the compounds according to the invention on gastric lesion formation induced by pyloric ligature (4 h; so-called Shay rat) and oral administration of 100 mg/kg of acetylsalicyclic acid, and the gastric secretion (HCl) in the course of 4 h in rats is shown in the following table. | *ED25 and ED50 = dose which reduces the lesion index or the HCL | secretion(4h) in the rat stomach by 25 and, respectively, 50% in the | treated group in comparison with the control group. The antiulcerogenic action was tested by the so-called Shay rat method: Ulcers are caused in rats which have been fasted for 24 hours (female, 180-200 g, 4 animals per cage on a high grid) by pyloric ligature (under diethyl ether anesthesia) and oral administration of 100 mg/10 ml/kg of acetylsalicylic acid. The substances to be tested are administered orally (10 ml/kg) one hour before the pyloric ligature. The wound is closed by means of Michel clamps. 4 hours thereafter, the animals are sacrificed under ether anesthesia by Atlas dislocation and resection of the stomach. The stomach is opened longitudinally and attached to a cork plate, after the amount of gastric juice secreted (volume) and later its HCl content (titration with sodium hydroxide solution) have first been determined; the number and size (=diameter) of the ulcers present are determined under a stereomicroscope at 10-fold magnification. The product of the degree of severity (according to the following points scale) and number of ulcers serves as the individual lesion index. The reduction in the average lesion index of each treated group compared with the control group (=100%) serves as a measure of the antiulcerogenic effect.

[2] = tested on: gastric secretion (HCl) (rat stomach); experiment: Shay rat: inhibition of gastric secretion (HCl) in the course of 4 h; format: in vivo; conditions: for ED25 / ED50: Rattus norvegicus, po, perorally, rats; for ED25: dose reducing HCl secretion (4 h) by 25% vs control; for ED50: dose reducing HCl secretion (4 h) by 50% vs control; for Gastric secretion (rats): % inhibition of HCl secretion: after administration of the antiulcerous ED50, perorally, 4 h
Protocol: as §1, with “group. | **after administration of the antiulcerous ED50.” for “group.”

| SMILES | ED50 [1] [mg/kg] | ED25 [2] [mg/kg] | ED50 [2] [mg/kg] | Gastric secretion (rats): % inhibition of HCl secretion [2] |
| --- | --- | --- | --- | --- |
| COc1ccnc(C[S+]([O-])c2nc3cc(OC(F)(F)F)ccc3[nH]2)c1 (stereo not drawn) [Serial No. 1, 2-[(4-methoxy-2-pyridyl)methylsulfinyl]-5-trifluoromethoxy-1H-benzimidazole] | 0.6 | 0.5 | 1.1 | 32% |
| COc1ccnc(CSc2nc3cc(OC(F)(F)F)ccc3[nH]2)c1C [Serial No. 2, 2-[(4-methoxy-3-methyl-2-pyridyl)methylthio]-5-trifluoromethoxy-1H-benzimidazole] | 0.3 | 0.35 | 0.5 | 20% |
| COc1ccnc(C[S+]([O-])c2nc3cc(OC(F)(F)F)ccc3[nH]2)c1C (stereo not drawn) [Serial No. 3, 2-[(4-methoxy-3-methyl-2-pyridyl)methylsulfinyl]-5-trifluoromethoxy-1H-benzimidazole] | 0.3 | < 0.3 | 0.4 | 32% |
| COc1cc(C[S+]([O-])c2nc3cc(OC(F)(F)F)ccc3[nH]2)ncc1C (stereo not drawn) [Serial No. 4, 2-[(4-methoxy-5-methyl-2-pyridyl)methylsulfinyl]-5-trifluoromethoxy-1H-benzimidazole] | 0.9 | 0.6 | 1.6 | 32% |
| COc1ccnc(C[S+]([O-])c2nc3cc(OC(F)(F)C(F)F)ccc3[nH]2)c1 (stereo not drawn) [Serial No. 5, 2-[(4-methoxy-2-pyridyl)methylsulfinyl]-5-(1,1,2,2-tetrafluoroethoxy)-1H-benzimidazole] | 0.7 | 0.5 | 1.2 | 33% |
| COc1ccnc(C[S+]([O-])c2nc3cc(OC(F)(F)C(F)F)ccc3[nH]2)c1C (stereo not drawn) [Serial No. 6, 2-[(4-methoxy-3-methyl-2-pyridyl)methylsulfinyl]-5-(1,1,2,2-tetrafluoroethoxy)-1H-benzimidazole] | 0.5 | 0.3 | 0.7 | 35% |
| COc1ccnc(CSc2nc3cc(OC(F)(F)C(F)F)ccc3[nH]2)c1C [Serial No. 7, 2-[(4-methoxy-3-methyl-2-pyridyl)methylthio]-5-(1,1,2,2-tetrafluoroethoxy)-1H-benzimidazole] | 0.5 | 0.35 | 0.7 | 40% |
| COc1c(C)cnc(C[S+]([O-])c2nc3cc(OC(F)(F)F)ccc3[nH]2)c1C (stereo not drawn) [Serial No. 8, 2-[(4-methoxy-3,5-dimethyl-2-pyridyl)methylsulfinyl]-5-trifluoromethoxy-1H-benzimidazole] | 0.4 | 1 | 1.5 | 20% |
| COc1c(C)cnc(CSc2nc3cc(OC(F)(F)F)ccc3[nH]2)c1C [Serial No. 9, 2-[(4-methoxy-3,5-dimethyl-2-pyridyl)methylthio]-5-trifluoromethoxy-1H-benzimidazole] | 1 | 1.4 | 2 | 10% |
| COc1ccnc(C[S+]([O-])c2nc3cc(OCC(F)(F)F)ccc3[nH]2)c1C (stereo not drawn) [Serial No. 10, 2-[(4-methoxy-3-methyl-2-pyridyl)methylsulfinyl]-5-(2,2,2-trifluoroethoxy)-1H-benzimidazole] | 0.5 | 0.5 | 0.7 | 25% |
| COc1ccnc(CSc2nc3cc(OCC(F)(F)F)ccc3[nH]2)c1C [Serial No. 11, 2-[(4-methoxy-3-methyl-2-pyridyl)methylthio]-5-(2,2,2-trifluoroethoxy)-1H-benzimidazole] | 0.5 | 0.5 | 0.7 | 25% |
| COc1ccnc(C[S+]([O-])c2nc3cc(OC(F)F)ccc3[nH]2)c1C (stereo not drawn) [Serial No. 12, 5-difluoromethoxy-2-[(4-methoxy-3-methyl-2-pyridyl)methylsulfinyl]-1H-benzimidazole] | ~0.3 | ~0.3 | ~0.6 | ~ 20% |
| COc1ccnc(C[S+]([O-])c2nc3cc(OC(F)F)c(OC(F)F)cc3[nH]2)c1 (stereo not drawn) [Serial No. 13, 5,6-bis(difluoromethoxy)-2-[(4-methoxy-2-pyridyl)methylsulfinyl]-1H-benzimidazole] | ~1.2 | ~1.1 | ~1.7 | ~ 30% |
| COc1ccnc(C[S+]([O-])c2nc3cc(OC(F)F)c(OC(F)F)cc3[nH]2)c1C (stereo not drawn) [Serial No. 14, 5,6-bis(difluoromethoxy)-2-[(4-methoxy-3-methyl-2-pyridyl)methylsulfinyl]-1H-benzimidazole] | 0.2 | ~0.3 | 0.6 | 20% |
| COc1ccnc(CSc2nc3cc(OC(F)F)c(OC(F)F)cc3[nH]2)c1C [Serial No. 15, 5,6-bis(difluoromethoxy)-2-[(4-methoxy-3-methyl-2-pyridyl)methylthio]-1H-benzimidazole] | 0.6 | 0.5 | 1 | 30% |
| COc1cc2[nH]c([S+]([O-])Cc3nccc(OC)c3C)nc2cc1OC(F)F (stereo not drawn) [Serial No. 16, 5-difluoromethoxy-6-methoxy-2-[(4-methoxy-3-methyl-2-pyridyl)methylsulfinyl]-1H-benzimidazole] | 0.2 | – | ~0.8 | – |
| COc1cc2[nH]c(SCc3nccc(OC)c3C)nc2cc1OC(F)F [Serial No. 17, 5-difluoromethoxy-6-methoxy-2-[(4-methoxy-3-methyl-2-pyridyl)methylthio]-1H-benzimidazole] | ~0.3 | ~0.3 | ~0.8 | ~ 25% |
| COc1ccnc(C[S+]([O-])c2nc3cc(OC(F)(F)Cl)ccc3[nH]2)c1 (stereo not drawn) [Serial No. 18, 5-chlorodifluoromethoxy-2-[(4-methoxy-2-pyridyl)methylsulfinyl]-1H-benzimidazole] | 1.3 | < 1 | 1.8 | 35% |
| COc1ccc2[nH]c(SCc3ncc(C)c(OC)c3C)nc2c1 [Serial No. A, 5-methoxy-2-[(4-methoxy-3,5-dimethyl-2-pyridylmethyl)thio]-1H--benzimidazole, reference compound] | 9 | 12 | 25 | 20% |
| COc1ccc2[nH]c([S+]([O-])Cc3ncc(C)c(OC)c3C)nc2c1 (stereo not drawn) [Serial No. B, 5-methoxy-2-[(4-methoxy-3,5-dimethyl-2-pyridylmethyl)sulfinyl]-1H--benzimidazole, reference compound] | 2.2 | 1.9 | 4.6 | 29% |
| COc1ccc2[nH]c(SCc3cc(OC)c(C)cn3)nc2c1 [Serial No. C, 5-methoxy-2-[(4-methoxy-5-methyl-2-pyridylmethyl)thio]-1H--benzimidazole, reference compound] | ~30 | > 60.6 | – | – |
| COc1ccc2[nH]c([S+]([O-])Cc3cc(OC)c(C)cn3)nc2c1 (stereo not drawn) [Serial No. D, 5-methoxy-2-[(4-methoxy-5-methyl-2-pyridylmethyl)sulfinyl]-1H--benzimidazole, reference compound] | ~5 | 8 | 18 | 10% |
